Among the data in patent publication US20250353848A1, “HETEROCYCLIC PAD4 INHIBITORS” (Celgene Corporation, priority 2022, published 2025) are IC50 values, retold here.

As a reminder, the IC50 is the point on the concentration scale where inhibition reaches its midpoint.

Assay [1] deals with T1, hPAD4 enzyme (Homo sapiens, UniProt Q9UM07). The assay is described as follows: RFMS Assay 2 (rapid-fire mass spectrum PAD4 inhibition assay, peptide substrate). The conditions noted are these: 35 nM recombinant human PAD4, substrate TSTGGRQGSHH, room temperature for 30 minutes; read-out: human PAD4 (hPAD4) IC50, RFMS Assay 2. It is filed as biochemical. The protocol:
Stock compounds were dissolved and stored in 100% DMSO. Compound solutions were prepared via serial dilution at 3-fold intervals in DMSO with top compound concentration at […] in each assay. 0.25 μl of compound solution was transferred from the compound plate to the assay plate by using an acoustic dispenser. Final assay conditions: • Total reaction volume: 25 μl • Assay buffer: […] pH 7.4, 200 mM NaCl, 2 mM CaCl2, 5 mM DTT • 35 nM recombinant human PAD4 • 500 µM TSTGGRQGSHH (SEQ ID NO: 1) • 1.2% DMSO • Stop solution: 10% formic acid
Reaction mixtures were incubated at room temperature for 30 minutes. 10 μl each of the reaction mixtures was then mixed with 40 μl of 10% formic acid in a microtiter plate. The plate was frozen at −80° C. before shipping out on dry ice for RapidFire mass spectroscopy analysis.
Thawed samples were loaded onto the Rapid Fire 300 system (Agilent) wherein they were first sipped for 250 ms and then loaded onto a Agilent “C” (C18) cartridge using a mobile phase of water containing 0.09% formic acid/0.01% trifluoroacetic acid for 3000 ms desalting flowing at a rate of 1.5 ml/min. Once the samples were loaded and washed, a mobile phase of acetonitrile containing 0.09% formic acid/0.01% trifluoroacetic acid was used to elute the samples directly onto a Sciex API4000 triple quadrupole mass spectrometer for 3000 ms at a flow rate of 1.25 ml/min.
MRM transitions for substrate and product were monitored in positive ESI mode at m/z=562.3/969.7 and m/z=562.8/541.3 respectively. The dwell time for each transition was set at 100 ms, and the ESI voltage was used at 5500 with a source temperature of 650° C. Extracted ion peaks for each transition were integrated using the Rapid Fire Integrator software.

The target in assay [2] is T1, hPAD4 enzyme. The assay is described as follows: RFMS Assay 1 (rapid-fire mass spectrum PAD4 inhibition assay, BAEE substrate). The format is biochemical. The settings on record: 5 nM hPAD4 enzyme, 250 μM BAEE, 30 mins compound and enzyme preincubation at 37° C., 90 min enzyme/substrate reaction. A digest of the protocol:
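Human PAD4 (5 nM) preincubated 30 min at 37 °C with compound (top 50 μM, 0.5% DMSO), then 250 μM BAEE for 90 min at 37 °C in pH 7.5 HEPES with 50 μM calcium, 5 μM TPEN, 1 mM DTT. Product derivatized with phenyl glyoxal; citrulline product quantified by RapidFire MS/MS MRM, normalized to internal standard.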

T1 sequence (Q9UM07 whole entry): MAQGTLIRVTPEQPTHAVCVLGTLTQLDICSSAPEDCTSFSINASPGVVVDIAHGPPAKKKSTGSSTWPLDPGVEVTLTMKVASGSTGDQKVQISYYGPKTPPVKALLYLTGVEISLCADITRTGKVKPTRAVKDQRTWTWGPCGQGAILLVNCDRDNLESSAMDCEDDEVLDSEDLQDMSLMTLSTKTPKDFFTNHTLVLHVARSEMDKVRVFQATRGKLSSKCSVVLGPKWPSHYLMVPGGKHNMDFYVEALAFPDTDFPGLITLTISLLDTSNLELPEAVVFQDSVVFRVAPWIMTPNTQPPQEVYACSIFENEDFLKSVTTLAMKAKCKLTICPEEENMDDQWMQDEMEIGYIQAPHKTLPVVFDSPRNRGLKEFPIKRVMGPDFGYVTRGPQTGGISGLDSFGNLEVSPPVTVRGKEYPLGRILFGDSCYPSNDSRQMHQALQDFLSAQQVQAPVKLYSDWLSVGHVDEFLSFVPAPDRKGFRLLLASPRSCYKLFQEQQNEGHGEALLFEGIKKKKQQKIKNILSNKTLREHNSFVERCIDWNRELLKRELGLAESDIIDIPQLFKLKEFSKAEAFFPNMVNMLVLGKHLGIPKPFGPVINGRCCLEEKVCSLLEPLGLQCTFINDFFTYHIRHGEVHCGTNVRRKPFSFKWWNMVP

For the compound `COc1cccc2cc(-c3nc4cc5c(nc4n3C)CCN(C[C@H](N)CF)C5=O)n(Cc3ccno3)c12` [Example 7, (S)-7-(2-amino-3-fluoropropyl)-2-(1-(isoxazol-5-ylmethyl)-7-methoxy-1H-indol-2-yl)-3-methyl-3,5,6,7-tetrahydro-8H-imidazo[4,5-b][1,6]naphthyridin-8-one], the IC50 lay within 101 to 500 nM on hPAD4 enzyme [1] and 11 to 100 nM against hPAD4 enzyme [2].
As to `Cc1ncoc1CCOc1cccc2cc(-c3nc4cc5c(nc4n3C)CCN(C[C@H](N)CF)C5=O)n(CC3CC3)c12` [Example 48, (S)-7-(2-amino-3-fluoropropyl)-2-(1-(cyclopropylmethyl)-7-(2-(4-methyloxazol-5-yl)ethoxy)-1H-indol-2-yl)-3-methyl-3,5,6,7-tetrahydro-8H-imidazo[4,5-b][1,6]naphthyridin-8-one], the half-maximal inhibitory concentration (IC50) fell in the range of 101 to 500 nM on hPAD4 enzyme [1] and 11 to 100 nM on hPAD4 enzyme [2].
`Cn1c(-c2cc3cccc(OCCn4ccnc4)c3n2CC2CC2)nc2cc3c(nc21)CCN(C[C@H](N)CF)C3=O` [Example 44, (S)-2-(7-(2-(1H-imidazol-1-yl)ethoxy)-1-(cyclopropylmethyl)-1H-indol-2-yl)-7-(2-amino-3-fluoropropyl)-3-methyl-3,5,6,7-tetrahydro-8H-imidazo[4,5-b][1,6]naphthyridin-8-one]: the IC50 is 11 to 100 nM at hPAD4 enzyme [1] and at most 10 nM against hPAD4 enzyme [2].
The matching figures for `Cn1c(-c2cc3cccc(OC[C@@H]4CNC(=O)O4)c3n2CC2CC2)nc2cc3c(nc21)CCN(C[C@H](N)CF)C3=O` [Example 34, (S)-5-(((2-(7-((S)-2-amino-3-fluoropropyl)-3-methyl-8-oxo-5,6,7,8-tetrahydro-3H-imidazo[4,5-b][1,6]naphthyridin-2-yl)-1-(cyclopropylmethyl)-1H-indol-7-yl)oxy)methyl)oxazolidin-2-one]: 11 to 100 nM and at most 10 nM.
As for `CC(Oc1cccc2cc(-c3nc4cc5c(nc4n3C)CCN(C[C@H](N)CF)C5=O)n(CC3CC3)c12)c1cc[nH]n1` (single isomer, unassigned) [Example 49a], the concentration for half-maximal inhibition (IC50) on hPAD4 enzyme [1] and on hPAD4 enzyme [2] was 11 to 100 nM throughout.
Turning to `CC(Cc1cnco1)Oc1cc(F)cc2cc(-c3nc4cc5c(nc4n3C)CCN(C[C@H](N)CF)C5=O)n(CC3CC3)c12` (single isomer, unassigned) [Example 65a], the IC50 is 101 to 500 nM on hPAD4 enzyme [1] and at most 10 nM at hPAD4 enzyme [2].
In the case of `Cn1c(-c2cc3ccnc(OCCn4ccnc4)c3n2CC2CC2)nc2cc3c(nc21)CCN(C[C@H](N)CF)C3=O` [Example 84, (S)-2-(7-(2-(1H-imidazol-1-yl)ethoxy)-1-(cyclopropylmethyl)-1H-pyrrolo[2,3-c]pyridin-2-yl)-7-(2-amino-3-fluoropropyl)-3-methyl-3,5,6,7-tetrahydro-8H-imidazo[4,5-b][1,6]naphthyridin-8-one], the values for the half-maximal inhibitory concentration (IC50) on hPAD4 enzyme [1] and against hPAD4 enzyme [2] were 11 to 100 nM and at most 10 nM, respectively.
`COc1cccc2cc(-c3nc4cc5c(nc4n3C)CCN(C[C@H](N)CF)C5=O)n(CC3OCCO3)c12` [Example 16, (S)-2-(1-((1,3-dioxolan-2-yl)methyl)-7-methoxy-1H-indol-2-yl)-7-(2-amino-3-fluoropropyl)-3-methyl-3,5,6,7-tetrahydro-8H-imidazo[4,5-b][1,6]naphthyridin-8-one]: the concentration for half-maximal inhibition (IC50) at hPAD4 enzyme [1] and against hPAD4 enzyme [2] was 101 to 500 nM in each case.
In the case of `CC(Oc1cccc2cc(-c3nc4cc5c(nc4n3C)CCN(C[C@H](N)CF)C5=O)n(CC3CC3)c12)c1cc[nH]n1` (single isomer, unassigned) [Example 49b], the IC50 on hPAD4 enzyme [1] and against hPAD4 enzyme [2] was 101 to 500 nM each time.
With `Cn1c(-c2cc3cccc(OC(F)Cn4ccnc4)c3n2CC2CC2)nc2cc3c(nc21)CCN(C[C@H](N)CF)C3=O` (single isomer, unassigned) [Example 74a], the values for the IC50 at hPAD4 enzyme [1] and on hPAD4 enzyme [2] were 11 to 100 nM and at most 10 nM, respectively.
In the same order, the values of `Cn1c(-c2cc3cccc(OCCc4ccon4)c3n2CC2CC2)nc2cc3c(nc21)CCN(C[C@H](N)CF)C3=O` [Example 46, (S)-7-(2-amino-3-fluoropropyl)-2-(1-(cyclopropylmethyl)-7-(2-(isoxazol-3-yl)ethoxy)-1H-indol-2-yl)-3-methyl-3,5,6,7-tetrahydro-8H-imidazo[4,5-b][1,6]naphthyridin-8-one] are 11 to 100 nM and at most 10 nM.
Consider `COc1cccc2cc(-c3nc4cc5c(nc4n3C)CCN(C[C@H](N)CF)C5=O)n(Cc3nc(C)cs3)c12` [Example 14, (S)-7-(2-amino-3-fluoropropyl)-2-(7-methoxy-1-((4-methylthiazol-2-yl)methyl)-1H-indol-2-yl)-3-methyl-3,5,6,7-tetrahydro-8H-imidazo[4,5-b][1,6]naphthyridin-8-one], for which the results for the 50% inhibitory concentration (IC50) at hPAD4 enzyme [1] and at hPAD4 enzyme [2] were 501 to 1000 nM and 11 to 100 nM, respectively.
In the case of `Cn1c(-c2cc3cccc(OCCn4cnc(F)c4)c3n2CC2CC2)nc2cc3c(nc21)CCN(C[C@H](N)CF)C3=O` [Example 70, (S)-7-(2-amino-3-fluoropropyl)-2-(1-(cyclopropylmethyl)-7-(2-(4-fluoro-1H-imidazol-1-yl)ethoxy)-1H-indol-2-yl)-3-methyl-3,5,6,7-tetrahydro-8H-imidazo[4,5-b][1,6]naphthyridin-8-one], the half-inhibitory concentration (IC50) at hPAD4 enzyme [1] is 11 to 100 nM; at hPAD4 enzyme [2], at most 10 nM.
The matching figures for `C[C@H](COc1cccc2cc(-c3nc4cc5c(nc4n3C)CCN(C[C@H](N)CF)C5=O)n(CC3CC3)c12)n1cnc(F)c1` [Example 85, 7-((S)-2-amino-3-fluoropropyl)-2-(1-(cyclopropylmethyl)-7-((R)-2-(4-fluoro-1H-imidazol-1-yl)propoxy)-1H-indol-2-yl)-3-methyl-3,5,6,7-tetrahydro-8H-imidazo[4,5-b][1,6]naphthyridin-8-one]: 11 to 100 nM and at most 10 nM.
For the compound `COc1cccc2cc(-c3nc4cc5c(nc4n3C)CCN(C[C@H]3COCCN3)C5=O)n(CC3CC3)c12` [Example 27, (S)-2-(1-(cyclopropylmethyl)-7-methoxy-1H-indol-2-yl)-3-methyl-7-(morpholin-3-ylmethyl)-3,5,6,7-tetrahydro-8H-imidazo[4,5-b][1,6]naphthyridin-8-one], the concentration for half-maximal inhibition (IC50) on hPAD4 enzyme [1] is above 1000 nM; on hPAD4 enzyme [2], 501 to 1000 nM.
As for `C[C@H](Cn1ccnc1)Oc1cccc2cc(-c3nc4cc5c(nc4n3C)CCN(C[C@H](N)CF)C5=O)n(CC3CC3)c12` [Example 62, 2-(7-(((R)-1-(1H-imidazol-1-yl)propan-2-yl)oxy)-1-(cyclopropylmethyl)-1H-indol-2-yl)-7-((S)-2-amino-3-fluoropropyl)-3-methyl-3,5,6,7-tetrahydro-8H-imidazo[4,5-b][1,6]naphthyridin-8-one], the IC50 was in the range of 101 to 500 nM at hPAD4 enzyme [1] and 11 to 100 nM against hPAD4 enzyme [2].
Turning to `Cn1c(-c2cc3cccc(OCC(C)(C)n4ccnc4)c3n2CC2CC2)nc2cc3c(nc21)CCN(C[C@H](N)CF)C3=O` [Example 96, (S)-2-(7-(2-(1H-imidazol-1-yl)-2-methylpropoxy)-1-(cyclopropylmethyl)-1H-indol-2-yl)-7-(2-amino-3-fluoropropyl)-3-methyl-3,5,6,7-tetrahydro-8H-imidazo[4,5-b][1,6]naphthyridin-8-one], the IC50 at hPAD4 enzyme [1] was 101 to 500 nM; against hPAD4 enzyme [2], at most 10 nM.
As for `COc1cccc2cc(-c3nc4cc5c(nc4n3C)CCN(C[C@H](N)CF)C5=O)n(Cc3ncc(C)o3)c12` [Example 11, (S)-7-(2-amino-3-fluoropropyl)-2-(7-methoxy-1-((5-methyloxazol-2-yl)methyl)-1H-indol-2-yl)-3-methyl-3,5,6,7-tetrahydro-8H-imidazo[4,5-b][1,6]naphthyridin-8-one], the half-inhibitory concentration (IC50) at hPAD4 enzyme [1] and against hPAD4 enzyme [2] was 101 to 500 nM each time.
Regarding `Cn1c(-c2cc3cccc(OCCc4cnn[nH]4)c3n2CC2CC2)nc2cc3c(nc21)CCN(C[C@H](N)CF)C3=O` [Example 47, (S)-2-(7-(2-(1H-1,2,3-triazol-5-yl)ethoxy)-1-(cyclopropylmethyl)-1H-indol-2-yl)-7-(2-amino-3-fluoropropyl)-3-methyl-3,5,6,7-tetrahydro-8H-imidazo[4,5-b][1,6]naphthyridin-8-one], the IC50 was 11 to 100 nM at hPAD4 enzyme [1] and at most 10 nM at hPAD4 enzyme [2].
For `COc1cccc2cc(-c3nc4cc5c(nc4n3C)CCN(C[C@H]3COCCN3)C5=O)n(CC3(F)CC3)c12` [Example 26, (S)-2-(1-((1-fluorocyclopropyl)methyl)-7-methoxy-1H-indol-2-yl)-3-methyl-7-(morpholin-3-ylmethyl)-3,5,6,7-tetrahydro-8H-imidazo[4,5-b][1,6]naphthyridin-8-one], the IC50 on hPAD4 enzyme [1] and against hPAD4 enzyme [2] was 101 to 500 nM each time.
